# Reference: PMC10877733, “Discovery and Characterization of VU0542270, the First Selective Inhibitor of Vascular Kir6.1/SUR2B KATP Channels” (Molecular Pharmacology, 2024)
# pIC50: −log10 of the molar value. Read-outs that look alike come from different tables or passages of the source.
# Tests used:
# [1] = Plasma binding by equilibrium dialysis, mouse; format: in vitro ADME; conditions: equilibrium dialysis 6 hours 37°C, read-out: Fu, plasma (mouse)
# Protocol: Determination of VU0542270 fraction unbound (fu) in plasma from mouse, rat, and human was conducted in vitro via equilibrium dialysis using high-throughput dialysis (HTD) membrane plates. Dialysis membranes (four paired strips per HTD assay) were hydrated as described by the manufacturer and inserted into the HTD plate, which was assembled and prepared for sample addition by the dispensing of blank buffer [Delbecco’s phosphate buffered saline (DPBS), 100 µL/well] into the “top half” of each membrane-split well. VU0542270 was diluted into plasma from each species (5 µM final concentration), which was aliquoted in triplicate to the “bottom half” of the prepared HTD plate wells. The HTD plate was sealed and incubated for 6 hours at 37°C. Following incubation, each well (both top and bottom halves) was transferred (20 µL) to the corresponding well of a 96-shallow-well (V-bottom) plate. […]
# fu was calculated as (analyte to IS mass spectrometry (MS) peak area ratio from Trans-buffer side)/(analyte to IS MS peak area ratio from Cis-plasma side). Mean values for each species were calculated from three replicates.
# Kir6.1/SUR2B = molecular target: T1, Kir6.1/SUR2B (Homo sapiens, UniProt O60706); assay: Thallium flux assay of Kir6.1/SUR2B in HEK293 cells; format: cell-based
# T1 construct: expressed in transfected cells; also transiently transfected HEK293T
# Excerpt: The pcDNA3.1-SUR2B plasmid was generously provided by Dr. Colin Nichols (Washington University). […] Stably transfected tetracycline-regulated expression human embryonic kidney-293 (T-Rex-HEK293) cells expressing both plasmids were generated by cotransfecting cells with Lipofectamine LTX followed by antibiotic selection and clonal selection using the thallium flux assay described below. […] The cell culture media contained Dulbecco's modified Eagle's medium (Gibco, 11965-092) supplied with heat-inactivated FBS (bio-techne, Minneapolis, MN […],10%), Blasticidine HCl (Gibco, A11139-03, 10 ug/mL), Penicillin-Streptomycin (Gibco, 15140-122, 2 mM), G418 Sulfate (CORNING, Corning, NY, 30-234-CR, 1 mg/mL), and Hygromycin B (Invitrogen, Carlsbad, CA, 10687-010, 250 ug/mL). For selectivity assays, HEK293T cells were cotransfected with Kir6.x and SURX with Lipofectamine LTX and incubated for 48 hours before thallium flux assays. […] [[…] et al., 2019]). […] Dye-loaded cells were washed with assay buffer and transferred to a Panoptic Kinetic Imaging Plate Reader (Wavefront Bioscience, Franklin, TN). Control and test compound treatments were for 4 minutes prior to adding 0.5 mM chloride-free thallium stimulus buffer (Ion Bioscience) to initiate thallium flux. […] Selectivity assays against other Kir channels were performed essentially as described previously ([[…] et al., 2018]; [[…] al., 2022]). […] Data were acquired using Panoptic Software, Waveguide (Wavefront Biosciences). Raw fluorescence values were imported for analysis into custom software (VICB, Vanderbilt University). Fluorescence versus time values for each well were normalized to the initial fluorescence value [F/F0]. […] CRC data were plotted in GraphPad Prism (GraphPad Software, San Diego, CA) and fitted with a four-parameter logistic model to determine IC50 values for rank-ordering hit potency.
# Kir4.1/Kir5.1 = molecular target: T2, Kir4.1/Kir5.1 (Homo sapiens, UniProt P78508+Q9NPI9); assay: Thallium flux selectivity assay Kir4.1/Kir5.1; format: cell-based
# T2 construct: expressed in transfected cells
# T2 sequence (P78508 1-379): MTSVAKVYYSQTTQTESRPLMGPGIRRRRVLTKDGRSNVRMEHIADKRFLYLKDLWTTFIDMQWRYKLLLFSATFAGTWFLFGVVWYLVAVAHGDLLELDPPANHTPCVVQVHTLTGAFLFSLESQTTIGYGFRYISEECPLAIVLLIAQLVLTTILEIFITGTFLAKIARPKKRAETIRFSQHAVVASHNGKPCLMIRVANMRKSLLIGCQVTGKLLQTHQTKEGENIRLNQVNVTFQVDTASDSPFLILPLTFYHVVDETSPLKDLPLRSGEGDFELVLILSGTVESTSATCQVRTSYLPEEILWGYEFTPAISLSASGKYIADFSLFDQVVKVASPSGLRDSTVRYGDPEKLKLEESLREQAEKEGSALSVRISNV
# T2 sequence (Q9NPI9 1-418): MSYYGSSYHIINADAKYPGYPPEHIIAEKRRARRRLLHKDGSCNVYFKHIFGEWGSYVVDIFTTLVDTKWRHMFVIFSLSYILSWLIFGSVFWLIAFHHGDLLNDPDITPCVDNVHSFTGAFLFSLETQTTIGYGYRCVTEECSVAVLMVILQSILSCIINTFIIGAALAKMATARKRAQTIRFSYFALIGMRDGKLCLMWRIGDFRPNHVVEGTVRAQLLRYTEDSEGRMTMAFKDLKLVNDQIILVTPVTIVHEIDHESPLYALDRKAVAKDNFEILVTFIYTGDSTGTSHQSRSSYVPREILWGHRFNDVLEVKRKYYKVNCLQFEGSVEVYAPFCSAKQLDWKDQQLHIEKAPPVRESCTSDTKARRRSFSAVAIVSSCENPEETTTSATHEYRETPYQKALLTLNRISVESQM
# Protocol: Quantitative thallium flux assays of Kir6.1/SUR2B activity were performed essentially as described previously for Kir6.2/SUR1 ([Raphemot et al., 2014]; [Kharade et al., 2019]). Stable T-Rex-HEK293-Kir6.1/SUR2B cells or transiently transfected HEK293T cells were plated in polyamine-coated, clear-bottomed, black-walled 384-well plates and were cultured (37°C/5% CO2) overnight in Dulbecco’s modified Eagle’s medium (Gibco, Carlsbad, CA, 11995-065) containing 10% FBS (2 mM Penicillin-Streptomycin). The following day, cells were washed with assay buffer (i.e., Hanks’ balanced salt solution/20 mM HEPES) and loaded for 1 hour with thallium sensor dye Brilliant Thallium (Ion Bioscience, San Marcos, TX) at room temperature. Dye-loaded cells were washed with assay buffer and transferred to a Panoptic Kinetic Imaging Plate Reader (Wavefront Bioscience, Franklin, TN). Control and test compound treatments were for 4 minutes prior to adding 0.5 mM chloride-free thallium stimulus buffer (Ion Bioscience) to initiate thallium flux. […] Selectivity assays against other Kir channels were performed essentially as described previously ([Kharade et al., 2018]; [McClenahan et al., 2022]).
# T1 sequence (O60706 1-1549 isoform O60706-2, species assumed): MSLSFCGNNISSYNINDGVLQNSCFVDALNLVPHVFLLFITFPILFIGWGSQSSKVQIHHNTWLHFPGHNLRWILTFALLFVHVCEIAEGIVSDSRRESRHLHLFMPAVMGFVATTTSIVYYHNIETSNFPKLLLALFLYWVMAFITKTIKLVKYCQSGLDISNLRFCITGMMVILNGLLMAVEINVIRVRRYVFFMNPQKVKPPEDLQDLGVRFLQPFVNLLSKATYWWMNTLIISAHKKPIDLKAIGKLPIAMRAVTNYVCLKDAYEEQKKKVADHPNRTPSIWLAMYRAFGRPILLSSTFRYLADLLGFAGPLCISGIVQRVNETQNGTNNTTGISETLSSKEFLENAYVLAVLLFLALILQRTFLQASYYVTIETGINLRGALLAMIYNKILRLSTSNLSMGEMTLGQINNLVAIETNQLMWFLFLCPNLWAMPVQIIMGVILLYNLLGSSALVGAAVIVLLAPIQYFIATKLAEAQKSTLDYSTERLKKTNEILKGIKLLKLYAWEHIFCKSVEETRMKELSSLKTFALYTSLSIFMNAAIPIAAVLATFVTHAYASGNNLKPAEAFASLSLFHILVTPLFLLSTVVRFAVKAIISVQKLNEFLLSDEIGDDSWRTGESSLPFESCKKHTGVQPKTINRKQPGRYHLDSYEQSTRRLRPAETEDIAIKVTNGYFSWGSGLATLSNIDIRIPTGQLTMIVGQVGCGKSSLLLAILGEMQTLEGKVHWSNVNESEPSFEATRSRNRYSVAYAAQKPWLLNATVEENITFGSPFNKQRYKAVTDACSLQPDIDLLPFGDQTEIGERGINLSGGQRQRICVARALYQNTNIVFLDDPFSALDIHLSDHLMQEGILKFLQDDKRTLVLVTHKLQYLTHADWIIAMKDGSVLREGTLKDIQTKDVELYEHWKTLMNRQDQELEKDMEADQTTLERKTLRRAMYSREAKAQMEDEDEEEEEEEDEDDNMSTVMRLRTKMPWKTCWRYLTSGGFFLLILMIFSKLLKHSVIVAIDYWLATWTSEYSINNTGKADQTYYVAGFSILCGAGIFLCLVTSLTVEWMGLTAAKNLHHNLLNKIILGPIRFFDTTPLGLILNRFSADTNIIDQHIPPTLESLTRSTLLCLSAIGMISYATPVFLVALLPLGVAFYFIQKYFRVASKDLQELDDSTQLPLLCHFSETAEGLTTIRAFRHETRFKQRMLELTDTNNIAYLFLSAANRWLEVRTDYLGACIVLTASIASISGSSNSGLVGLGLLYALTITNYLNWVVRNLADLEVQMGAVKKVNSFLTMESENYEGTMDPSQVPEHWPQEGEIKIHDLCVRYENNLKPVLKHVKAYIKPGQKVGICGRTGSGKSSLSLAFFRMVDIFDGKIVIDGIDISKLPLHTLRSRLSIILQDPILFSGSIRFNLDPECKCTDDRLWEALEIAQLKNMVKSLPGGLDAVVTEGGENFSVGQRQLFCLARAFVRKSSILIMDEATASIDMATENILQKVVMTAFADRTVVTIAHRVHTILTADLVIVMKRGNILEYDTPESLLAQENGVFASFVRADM
# T1 sequence (Q15842 whole entry partner, species assumed): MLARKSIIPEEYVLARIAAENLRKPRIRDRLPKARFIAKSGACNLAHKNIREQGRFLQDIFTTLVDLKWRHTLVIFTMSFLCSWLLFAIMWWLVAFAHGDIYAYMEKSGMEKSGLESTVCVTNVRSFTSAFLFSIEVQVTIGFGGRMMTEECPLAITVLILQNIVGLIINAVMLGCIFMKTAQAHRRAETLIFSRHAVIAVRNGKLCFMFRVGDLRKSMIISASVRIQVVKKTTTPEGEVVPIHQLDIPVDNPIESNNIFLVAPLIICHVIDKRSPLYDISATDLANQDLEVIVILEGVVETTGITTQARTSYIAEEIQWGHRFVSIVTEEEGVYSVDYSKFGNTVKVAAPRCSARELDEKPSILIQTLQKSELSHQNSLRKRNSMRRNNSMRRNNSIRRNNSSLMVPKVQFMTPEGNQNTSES
structure (smiles),measurement,setting,value
Cc1nc(-c2cccs2)sc1CNC(=O)Nc1cccs1 [VU0542270],"fraction unbound at 6 h, 5 µM",[1],0.01
same,pIC50,"Kir6.1/SUR2B; Table 1 selectivity profile, read-out: IC50 Kir6.1/SUR2B",6.96
same,pIC50,"Kir6.1/SUR2B; pinacidil-activated, read-out: Kir6.1/SUR2B IC50",6.98
same,pIC50,"Kir6.1/SUR2B; transfected HEK-293 cells, pinacidil activation, read-out: Kir6.1/SUR2B IC50 (Fig. 4C)",6.89
same,pIC50,Kir4.1/Kir5.1,< 4.52
